According to patent US8802597B2, “Herbicidal pyrimidines” (E I du Pont de Nemours and Company, priority 2003, dated 2014):
Like-named read-outs stand apart in the source and are kept apart here.

What was measured:
Assay in all cases: Test C pre/postemergence
Assay type in all cases: in vivo
[1] = tested on: velvetleaf (Abutilon theophrasti); settings: Abutilon theophrasti; for pest or weed control at 16 g/ha: 16 g ai/ha; for pest or weed control at 31 g/ha: 31 g ai/ha; for pest or weed control at 62 g/ha: 62 g ai/ha
In short: (§1)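 Greenhouse herbicide screen, visual readout. Compound in solvent/surfactant applied preemergence at planting or postemergence to 1- to 4-leaf plants; assessed at 12–14 days on a 0–100 control scale.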

[2] = tested on: lambsquarters (Chenopodium album); settings: Chenopodium album; for pest or weed control at 8 g/ha: 8 g ai/ha; for pest or weed control at 16 g/ha: 16 g ai/ha; for pest or weed control at 31 g/ha: 31 g ai/ha; for pest or weed control at 62 g/ha: 62 g ai/ha
In short: as §1

[3] = tested on: goosegrass (Eleusine indica); settings: Eleusine indica; for pest or weed control at 8 g/ha: 8 g ai/ha; for pest or weed control at 16 g/ha: 16 g ai/ha; for pest or weed control at 31 g/ha: 31 g ai/ha; for pest or weed control at 62 g/ha: 62 g ai/ha
In short: as §1

[4] = tested on: common ragweed (Ambrosia elatior); settings: Ambrosia artemisiifolia; for pest or weed control at 8 g/ha: 8 g ai/ha; for pest or weed control at 16 g/ha: 16 g ai/ha; for pest or weed control at 31 g/ha: 31 g ai/ha; for pest or weed control at 62 g/ha: 62 g ai/ha
In short: as §1

[5] = tested on: giant foxtail (Setaria faberii); settings: Setaria faberi; for pest or weed control at 8 g/ha: 8 g ai/ha; for pest or weed control at 31 g/ha: 31 g ai/ha; for pest or weed control at 62 g/ha: 62 g ai/ha
In short: as §1

[6] = tested on: morningglory (Ipomoea coccinea); settings: Ipomoea; for pest or weed control at 8 g/ha: 8 g ai/ha; for pest or weed control at 31 g/ha: 31 g ai/ha; for pest or weed control at 62 g/ha: 62 g ai/ha
In short: as §1

[7] = post-emergence, Postemergence, read-out: Plant response rating (scale of 0 to 100), Velvetleaf
[8] = pre-emergence, Preemergence, scale 0 to 100, 0 no effect, 100 complete control, read-out: Plant response rating, Velvetleaf
[9] = post-emergence, Postemergence, read-out: Plant response rating (scale of 0 to 100), Lambsquarters
[10] = pre-emergence, Preemergence, scale 0 to 100, 0 no effect, 100 complete control, read-out: Plant response rating, Lambsquarters
[11] = post-emergence, Postemergence, read-out: Plant response rating (scale of 0 to 100), Goosegrass
[12] = pre-emergence, Preemergence, scale 0 to 100, 0 no effect, 100 complete control, read-out: Plant response rating, Goosegrass
[13] = post-emergence, Postemergence, read-out: Plant response rating (scale of 0 to 100), Ragweed
[14] = pre-emergence, Preemergence, scale 0 to 100, 0 no effect, 100 complete control, read-out: Plant response rating, Ragweed
[15] = post-emergence, Postemergence, read-out: Plant response rating (scale of 0 to 100), Foxtail, Giant
[16] = pre-emergence, Preemergence, scale 0 to 100, 0 no effect, 100 complete control, read-out: Plant response rating, Foxtail, Giant
[17] = post-emergence, Postemergence, read-out: Plant response rating (scale of 0 to 100), Morningglory
[18] = pre-emergence, Preemergence, scale 0 to 100, 0 no effect, 100 complete control, read-out: Plant response rating, Morningglory

`Nc1nc(-c2ccc(Br)cc2)nc(C(=O)O)c1Cl` [Compound 95, 6-amino-2-(4-bromophenyl)-5-chloro-4-pyrimidinecarboxylic acid] was tested, and the pest or weed control at 16 g/ha [1, 7] was 95%, the pest or weed control at 31 g/ha [1, 7] was 100% and the pest or weed control at 62 g/ha [1, 7] was 100%. For the same compound, the pest or weed control at 8 g/ha ([1]; pre-emergence, Preemergence, 8 g ai/ha, scale 0 to 100 (0 no effect, 100 complete control), read-out: Plant response rating, Velvetleaf) was 0%, the pest or weed control at 16 g/ha [1, 8] was 0% and the pest or weed control at 31 g/ha [1, 8] was 60%. It also gave a pest or weed control at 62 g/ha [1, 8] of 90%, a pest or weed control at 8 g/ha ([2]; post-emergence, Postemergence, scale 0 to 100, read-out: Plant response rating, Lambsquarters) of 75% and a pest or weed control at 16 g/ha [2, 9] of 100%. It also gave a pest or weed control at 31 g/ha [2, 9] of 100%, a pest or weed control at 62 g/ha [2, 9] of 100% and a pest or weed control at 8 g/ha ([2]; pre-emergence, Preemergence, scale 0 to 100 (0 no effect, 100 complete control), read-out: Plant response rating, Lambsquarters) of 0%. The pest or weed control at 16 g/ha [2, 10] was 100%, the pest or weed control at 31 g/ha [2, 10] was 100% and the pest or weed control at 62 g/ha [2, 10] was 100%. For the same compound, the pest or weed control at 8 g/ha ([3]; post-emergence, Postemergence, scale 0 to 100, read-out: Plant response rating, Goosegrass) was 50%, the pest or weed control at 16 g/ha [3, 11] was 65% and the pest or weed control at 31 g/ha [3, 11] was 75%. The pest or weed control at 62 g/ha [3, 11] was 80%, the pest or weed control at 8 g/ha ([3]; pre-emergence, Preemergence, scale 0 to 100 (0 no effect, 100 complete control), read-out: Plant response rating, Goosegrass) was 0% and the pest or weed control at 16 g/ha [3, 12] was 0%. For the same compound, the pest or weed control at 31 g/ha [3, 12] was 10%, the pest or weed control at 62 g/ha [3, 12] was 40% and the pest or weed control at 8 g/ha ([4]; post-emergence, Postemergence, scale 0 to 100, read-out: Plant response rating, Ragweed) was 90%. It also gave a pest or weed control at 16 g/ha [4, 13] of 95%, a pest or weed control at 31 g/ha [4, 13] of 95% and a pest or weed control at 62 g/ha [4, 13] of 95%. For the same compound, the pest or weed control at 8 g/ha ([4]; pre-emergence, Preemergence, scale 0 to 100 (0 no effect, 100 complete control), read-out: Plant response rating, Ragweed) was 65%, the pest or weed control at 16 g/ha [4, 14] was 90% and the pest or weed control at 31 g/ha [4, 14] was 100%. The pest or weed control at 62 g/ha [4, 14] was 100%, the pest or weed control at 8 g/ha ([5]; post-emergence, Postemergence, scale 0 to 100, read-out: Plant response rating, Foxtail, Giant) was 70% and the pest or weed control at 31 g/ha [5, 15] was 75%. For the same compound, the pest or weed control at 62 g/ha [5, 15] was 80%, the pest or weed control at 8 g/ha ([5]; pre-emergence, Preemergence, scale 0 to 100 (0 no effect, 100 complete control), read-out: Plant response rating, Foxtail, Giant) was 0% and the pest or weed control at 16 g/ha ([5]; pre-emergence, Preemergence, 16 g ai/ha, scale 0 to 100, 0 no effect, 100 complete control, read-out: Plant response rating, Foxtail, Giant) was 0%. The pest or weed control at 31 g/ha [5, 16] was 30%, the pest or weed control at 62 g/ha [5, 16] was 35% and the pest or weed control at 8 g/ha ([6]; post-emergence, Postemergence, scale 0 to 100, read-out: Plant response rating, Morningglory) was 60%. For the same compound, the pest or weed control at 31 g/ha [6, 17] was 80%, the pest or weed control at 62 g/ha [6, 17] was 95% and the pest or weed control at 8 g/ha ([6]; pre-emergence, Preemergence, scale 0 to 100 (0 no effect, 100 complete control), read-out: Plant response rating, Morningglory) was 0%. The pest or weed control at 16 g/ha ([6]; pre-emergence, Preemergence, 16 g ai/ha, scale 0 to 100, 0 no effect, 100 complete control, read-out: Plant response rating, Morningglory) was 0%, the pest or weed control at 31 g/ha [6, 18] was 10% and the pest or weed control at 62 g/ha [6, 18] was 60%.
